Patent US11325899B2, “Benzofurane and benzothiophene derivatives as PGE2 receptor modulators” (IDORSIA PHARMACEUTICALS LTD, priority 2017, dated 2022)

What was measured:
EP2 receptor = molecular target: T1, EP2 receptor (Homo sapiens, UniProt P43116); assay: hEP2 cAMP assay (SF295 glioblastoma cells, HTRF cAMP, PGE2 stimulation); type: cell-based; conditions: antagonistic activity
T1 construct: SF295 glioblastoma cells express high endogenous EP2 and no EP4; host or cells: SF295 glioblastoma cells
In short: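 SF295 glioblastoma cells with endogenous EP2 and no EP4, in HBSS/HEPES/BSA with 2 mM IBMX, pre-incubated 45 min at room temperature with compound, then stimulated 30 min with 75 nM PGE2 (EC80). cAMP measured by HTRF; IC50 fitted from duplicate % cAMP versus DMSO control.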

EP4 receptor = molecular target: T2, EP4 receptor (Homo sapiens, UniProt P35408); assay: hEP4 cAMP assay (BT549 breast cancer cells, HTRF cAMP, PGE2 stimulation); type: cell-based; conditions: antagonistic activity, PGE2 6 nM (EC80)
T2 construct: BT549 breast cancer cells, express high endogenous EP4 levels and very low EP2 levels; host or cells: BT549 breast cancer cells
In short: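 BT549 cells, with endogenous EP4 and very low EP2, were preincubated 45 min at room temperature with compound in HBSS/HEPES/BSA buffer with 2 mM IBMX. They were then stimulated 30 min with 6 nM PGE2 (EC80). cAMP was measured by HTRF competitive immunoassay against a calibrator; IC50 from duplicate dose-response as % of DMSO control.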

T1 sequence (P43116 whole entry): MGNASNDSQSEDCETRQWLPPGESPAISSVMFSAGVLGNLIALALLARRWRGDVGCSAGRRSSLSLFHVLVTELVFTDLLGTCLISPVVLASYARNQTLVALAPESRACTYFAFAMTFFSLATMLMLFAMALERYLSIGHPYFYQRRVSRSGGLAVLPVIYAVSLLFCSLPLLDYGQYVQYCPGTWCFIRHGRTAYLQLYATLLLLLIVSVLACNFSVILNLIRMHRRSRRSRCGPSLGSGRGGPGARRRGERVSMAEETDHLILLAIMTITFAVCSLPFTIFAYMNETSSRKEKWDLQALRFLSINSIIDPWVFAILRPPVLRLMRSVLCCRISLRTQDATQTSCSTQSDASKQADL
T2 sequence (P35408 whole entry): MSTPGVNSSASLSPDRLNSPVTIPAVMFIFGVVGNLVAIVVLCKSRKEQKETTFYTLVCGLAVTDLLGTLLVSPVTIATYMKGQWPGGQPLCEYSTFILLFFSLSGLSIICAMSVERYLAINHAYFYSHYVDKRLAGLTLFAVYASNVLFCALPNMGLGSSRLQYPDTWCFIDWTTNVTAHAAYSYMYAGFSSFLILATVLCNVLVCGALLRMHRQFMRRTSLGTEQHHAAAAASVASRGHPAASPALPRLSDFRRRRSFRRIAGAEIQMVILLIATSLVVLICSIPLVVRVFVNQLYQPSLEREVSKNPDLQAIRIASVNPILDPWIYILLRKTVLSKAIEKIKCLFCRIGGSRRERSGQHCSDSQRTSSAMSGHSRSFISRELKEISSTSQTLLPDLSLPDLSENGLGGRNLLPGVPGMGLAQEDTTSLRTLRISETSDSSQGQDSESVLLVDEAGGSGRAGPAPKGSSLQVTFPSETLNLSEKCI

CCOc1cc(-c2cc(NCCc3c(C)sc4c(C)cc(F)cc34)ncn2)sc1C(=O)NS(N)(=O)=O [Example 156, 3-Ethoxy-5-(6-((2-(5-fluoro-2,7-dimethylbenzo[b]thiophen-3-yl)ethyl)amino)pyrimidin-4-yl)-N-sulfamoylthiophene-2-carboxamide]
IC50 (EP2 receptor): 10 nM | IC50 (EP4 receptor): 163 nM

COc1ccc(F)c2c(CCNc3cc(-c4ccc(C(=O)O)c(OC5CCC5)c4)ncn3)c(C)sc12 [Example 134, 2-Cyclobutoxy-4-{6-[2-(4-fluoro-7-methoxy-2-methyl-benzo[b]thiophen-3-yl)-ethylamino]-pyrimidin-4-yl}-benzoic acid]
IC50 (EP2 receptor): 46 nM | IC50 (EP4 receptor): 194 nM

CCOc1cc(-c2cc(NCCc3c(C)sc4c(C)cc(F)cc34)ncn2)sc1/C=C/C(=O)O [Example 96, (E)-3-(3-Ethoxy-5-{6-[2-(5-fluoro-2,7-dimethyl-benzo[b]thiophen-3-yl)-ethylamino]-pyrimidin-4-yl}-thiophen-2-yl)-acrylic acid]
IC50 (EP2 receptor): 121 nM | IC50 (EP4 receptor): 42 nM

CCOc1cc(-c2cc(NCCc3c(C)sc4c(C)cc(F)cc34)ncn2)ccc1-c1noc(=O)[nH]1 [Example 155, 3-(2-Ethoxy-4-{6-[2-(5-fluoro-2,7-dimethyl-benzo[b]thiophen-3-yl)-ethylamino]-pyrimidin-4-yl}-phenyl)-[1,2,4]oxadiazol-5(4H)-one [tautomeric form: 3-(2-ethoxy-4-(6-((2-(5-fluoro-2,7-dimethylbenzo[b]thiophen-3-yl)ethyl)amino)pyrimidin-4-yl)phenyl)-[1,2,4]oxadiazol-5-ol]]
IC50 (EP2 receptor): 87 nM | IC50 (EP4 receptor): 108 nM

CCOc1cc(-c2cc(NCCc3c(C)oc4c(Cl)cccc34)ncn2)ccc1OCC(=O)O [Example 120, (4-{6-[2-(7-Chloro-2-methyl-benzofuran-3-yl)-ethylamino]-pyrimidin-4-yl}-2-ethoxy-phenoxy)-acetic acid]
IC50 (EP2 receptor): 59 nM | IC50 (EP4 receptor): 123 nM

Cc1sc2c(C)cc(F)cc2c1CCNc1cc(-c2ccc(C(=O)O)c(OC3CCC3)c2)ncn1 [Example 138, 2-Cyclobutoxy-4-{6-[2-(5-fluoro-2,7-dimethyl-benzo[b]thiophen-3-yl)-ethylamino]-pyrimidin-4-yl}-benzoic acid]
IC50 (EP2 receptor): 75 nM | IC50 (EP4 receptor): 478 nM

COc1ccc(Cl)c2c(CCNc3cc(-c4ccc(C(=O)O)c(OC5CCC5)c4)ncn3)c(C)sc12 [Example 135, 4-{6-[2-(4-Chloro-7-methoxy-2-methyl-benzo[b]thiophen-3-yl)-ethylamino]-pyrimidin-4-yl}-2-cyclobutoxy-benzoic acid]
IC50 (EP2 receptor): 30 nM | IC50 (EP4 receptor): 198 nM

Cc1sc2c(C)ccc(F)c2c1CCNc1cc(-c2cc(F)c(C(=O)O)c(OC3CCC3)c2)ncn1 [Example 148, 2-Cyclobutoxy-6-fluoro-4-{6-[2-(4-fluoro-2,7-dimethyl-benzo[b]thiophen-3-yl)-ethylamino]-pyrimidin-4-yl}-benzoic acid]
IC50 (EP2 receptor): 109 nM | IC50 (EP4 receptor): 238 nM

CCOc1cc(-c2cc(NCCc3c(C)sc4c(C)cc(F)cc34)ncn2)sc1C(=O)NS(C)(=O)=O [Example 157, N-(3-Ethoxy-5-{6-[2-(5-fluoro-2,7-dimethyl-benzo[b]thiophen-3-yl)-ethylamino]-pyrimidin-4-yl}-thiophene-2-carbonyl)-methanesulfonamide]
IC50 (EP2 receptor): 18 nM | IC50 (EP4 receptor): 69 nM

CCOc1cc(-c2cc(NCCc3c(C)sc4c(C)cc(F)cc34)ncn2)ccc1OCCC(=O)O [Example 143, 3-(2-Ethoxy-4-{6-[2-(5-fluoro-2,7-dimethyl-benzo[b]thiophen-3-yl)-ethylamino]-pyrimidin-4-yl}-phenoxy)-propionic acid]
IC50 (EP2 receptor): 86 nM | IC50 (EP4 receptor): 115 nM
